Assay results reported in ChEMBL document CHEMBL1909544, “Renin inhibitors for the treatment of hypertension: design and optimization of a novel series of tertiary alcohol-bearing piperidines” (Bioorg Med Chem Lett, 2011).

Assays:
Format in all cases: ADME, organism-based
[1] = Oral bioavailability in Sprague-Dawley rat at 0.3 mg/kg; details: in vivo
[2] = Volume of distribution at steady state in Sprague-Dawley rat at 5 mg/kg, iv; parameters: dose 5 mg/kg, route intravenous; details: in vivo, read-out: Vdss
[3] = Oral bioavailability in Sprague-Dawley rat at 30 mg/kg; details: in vivo
[4] = Oral bioavailability in Sprague-Dawley rat at 3 mg/kg; details: in vivo
[5] = Clearance in Sprague-Dawley rat at 5 mg/kg, iv; parameters: dose 5 mg/kg, route intravenous; details: in vivo
[6] = Half life in Sprague-Dawley rat at 5 mg/kg, iv; parameters: dose 5 mg/kg, route intravenous; details: in vivo
[7] = Volume of distribution at steady state in Sprague-Dawley rat at 3 mg/kg, po and 5 mg/kg, iv; details: in vivo, read-out: Vdss
[8] = Clearance in Sprague-Dawley rat at 3 mg/kg, po and 5 mg/kg, iv; details: in vivo
[9] = AUC in Sprague-Dawley rat at 3 mg/kg, po; parameters: dose 3 mg/kg, route oral; details: plasma
[10] = Half life in Sprague-Dawley rat at 3 mg/kg, po and 5 mg/kg, iv; details: in vivo

bioavailability [1] [%] | Vd [2] [L/kg] | bioavailability [3] [%] | bioavailability [4] [%] | clearance [5] [L/h/kg] | half-life [6] [h] | Vd [7] [L/kg] | clearance [8] [L/h/kg] | AUC [9] [nM·h] | half-life [10] [h] | Structure (SMILES)
17 | 5 | 18 | 29 | 2.16 | 1.5 |  |  |  |  | COCCCc1cc(CN(C(=O)C2CNCCC2(O)c2ccc(F)c(F)c2)C2CC2)cc(OCCOC)c1 (single isomer, unassigned)
 |  |  | 37 |  |  | 48 | 5.58 | 340 | 9.4 | O=C([C@H]1CNCC[C@]1(O)c1ccc(F)c(F)c1)N(Cc1cn(Cc2cccc(F)c2)c2cccc(F)c12)C1CC1 (racemic)
 |  |  | < 1 |  |  | 0.4 | 0.96 | 40 | 2.6 | O=C([C@H]1CNCC[C@]1(OCC(O)CO)c1ccc(F)c(F)c1)N(Cc1cn(Cc2cccc(F)c2)c2cccc(F)c12)C1CC1 (mixture of isomers)
